ChEMBL document CHEMBL5724914, “Linking interpersonal differences in gut microbiota composition and drug biotransformation activity” (2024)

Key:
[1] = human gut metagenome, 24 h, 2 µM
[2] = (§1) The drug is tested on WLS-010 corresponding to human gut metagenome with ENA study accession number: PRJEB37062 and ENA sample accession number: ERS12561743 for biotransformation under anaerobic condition. The drug concentrations were measured over 9 timepoints collected between 0 and 24 hours of incubation by liquid-chromatography-coupled mass spectrometry (LC–MS); conditions: 2 µM
[3] = as §1, with “WLS-086” for “WLS-010”, “ERS12561752” for “ERS12561743”; conditions: 2 µM
[4] = human gut metagenome, 24 h, 2 µM; remark: listed apart in the source
[5] = as §1, with “Z-022” for “WLS-010”, “mouse” for “human”, “ERS12561821” for “ERS12561743”; conditions: 2 µM
[6] = human gut metagenome, 24 h, 2 µM; remark: listed apart in the source
[7] = human gut metagenome, 24 h, 2 µM; remark: listed apart in the source
[8] = as §1, with “Z-017” for “WLS-010”, “mouse” for “human”, “ERS12561816” for “ERS12561743”; conditions: 2 µM
[9] = as §1, with “Z-026” for “WLS-010”, “to” for “to human gut”, “ERS12561825” for “ERS12561743”; conditions: 2 µM
[10] = as §1, with “WLS-170” for “WLS-010”, “ERS12561762” for “ERS12561743”; conditions: 2 µM
[11] = human gut metagenome, 24 h, 2 µM; remark: listed apart in the source
[12] = as §1, with “Z-023” for “WLS-010”, “to” for “to human gut”, “ERS12561822” for “ERS12561743”; conditions: 2 µM
[13] = as §1, with “Z-012” for “WLS-010”, “to” for “to human gut”, “ERS12561812” for “ERS12561743”; conditions: 2 µM
[14] = as §1, with “Z-014” for “WLS-010”, “rat” for “human”, “ERS12561814” for “ERS12561743”; conditions: 2 µM
[15] = as §1, with “WLS-082” for “WLS-010”, “ERS12561751” for “ERS12561743”; conditions: 2 µM
[16] = as §1, with “Z-020” for “WLS-010”, “rabbit” for “human”, “ERS12561819” for “ERS12561743”; conditions: 2 µM
[17] = as §1, with “Z-029” for “WLS-010”, “rat” for “human”, “ERS12561828” for “ERS12561743”; conditions: 2 µM
[18] = human gut metagenome, 24 h, 2 µM; remark: listed apart in the source
[19] = human gut metagenome, 24 h, 2 µM; remark: listed apart in the source
[20] = human gut metagenome, 24 h, 2 µM; remark: listed apart in the source
Note: call rule not given here.

Bacterial Biotransformation [1] | Bacterial Biotransformation [2] | Bacterial Biotransformation [3] | Bacterial Biotransformation [4] | Bacterial Biotransformation [5] | Bacterial Biotransformation [6] | Bacterial Biotransformation [7] | Bacterial Biotransformation [8] | Bacterial Biotransformation [9] | Bacterial Biotransformation [10] | Bacterial Biotransformation [11] | Bacterial Biotransformation [12] | Bacterial Biotransformation [13] | Bacterial Biotransformation [14] | Bacterial Biotransformation [15] | Bacterial Biotransformation [16] | Bacterial Biotransformation [17] | Bacterial Biotransformation [18] | Bacterial Biotransformation [19] | Bacterial Biotransformation [20] | SMILES
Compound metabolized | Compound metabolized | Compound metabolized | Compound metabolized | Compound metabolized | Compound NOT metabolized | Compound metabolized | Compound NOT metabolized | Compound NOT metabolized | Compound metabolized | Compound metabolized | Compound metabolized | Compound metabolized | Compound NOT metabolized | Compound metabolized | Compound metabolized | Compound NOT metabolized | Compound metabolized | Compound metabolized | Compound metabolized | COc1ccc([C@@H]2Sc3ccccc3N(CCN(C)C)C(=O)[C@@H]2OC(C)=O)cc1 [DILTIAZEM]
Compound metabolized | Compound metabolized | Compound metabolized | Compound metabolized | Compound metabolized | Compound NOT metabolized | Compound metabolized | Compound NOT metabolized | Compound metabolized | Compound metabolized | Compound metabolized | Compound metabolized | Compound NOT metabolized | Compound NOT metabolized | Compound NOT metabolized | Compound NOT metabolized | Compound NOT metabolized | Compound metabolized | Compound NOT metabolized | Compound metabolized | OCCN(CCO)c1nc(N2CCCCC2)c2nc(N(CCO)CCO)nc(N3CCCCC3)c2n1 [DIPYRIDAMOLE]
Compound NOT metabolized | Compound NOT metabolized | Compound metabolized | Compound NOT metabolized | Compound NOT metabolized | Compound NOT metabolized | Compound NOT metabolized | Compound NOT metabolized | Compound NOT metabolized | Compound metabolized | Compound NOT metabolized | Compound NOT metabolized | Compound NOT metabolized | Compound NOT metabolized | Compound NOT metabolized | Compound NOT metabolized | Compound NOT metabolized | Compound NOT metabolized | Compound NOT metabolized | Compound metabolized | CCOc1ccc2nc(S(N)(=O)=O)sc2c1 [ETHOXZOLAMIDE]
Compound metabolized | Compound metabolized | Compound metabolized | Compound metabolized | Compound NOT metabolized | Compound metabolized | Compound metabolized | Compound metabolized | Compound metabolized | Compound metabolized | Compound metabolized | Compound metabolized | Compound NOT metabolized | Compound metabolized | Compound metabolized | Compound metabolized | Compound NOT metabolized | Compound metabolized | Compound metabolized | Compound metabolized | CC(=O)OCC(CCn1cnc2cnc(N)nc21)COC(C)=O [FAMCICLOVIR]

Second part, the molecule before the results:

SMILES | Bacterial Biotransformation [1] | Bacterial Biotransformation [2] | Bacterial Biotransformation [3] | Bacterial Biotransformation [4] | Bacterial Biotransformation [5] | Bacterial Biotransformation [6] | Bacterial Biotransformation [7] | Bacterial Biotransformation [8] | Bacterial Biotransformation [9] | Bacterial Biotransformation [10] | Bacterial Biotransformation [11] | Bacterial Biotransformation [12] | Bacterial Biotransformation [13] | Bacterial Biotransformation [14] | Bacterial Biotransformation [15] | Bacterial Biotransformation [16] | Bacterial Biotransformation [17] | Bacterial Biotransformation [18] | Bacterial Biotransformation [19] | Bacterial Biotransformation [20]
CCN(CC)CCOC(=O)C1(C2CCCCC2)CCCCC1 [DICYCLOMINE] | Compound metabolized | Compound metabolized | Compound metabolized | Compound metabolized | Compound metabolized | Compound NOT metabolized | Compound NOT metabolized | Compound NOT metabolized | Compound NOT metabolized | Compound metabolized | Compound NOT metabolized | Compound metabolized | Compound metabolized | Compound NOT metabolized | Compound metabolized | Compound NOT metabolized | Compound NOT metabolized | Compound metabolized | Compound NOT metabolized | Compound metabolized
COc1cc2nc(N3CCN(C(=O)C4COc5ccccc5O4)CC3)nc(N)c2cc1OC.CS(=O)(=O)O (stereo not given) [DOXAZOSIN MESYLATE] | Compound metabolized | Compound metabolized | Compound metabolized | Compound metabolized | Compound metabolized | Compound NOT metabolized | Compound metabolized | Compound NOT metabolized | Compound metabolized | Compound metabolized | Compound metabolized | Compound metabolized | Compound NOT metabolized | Compound NOT metabolized | Compound metabolized | Compound NOT metabolized | Compound NOT metabolized | Compound metabolized | Compound NOT metabolized | Compound metabolized
CN(C)CCOC(C)(c1ccccc1)c1ccccn1.O=C(O)CCC(=O)O (stereo not given) [DOXYLAMINE SUCCINATE] | Compound NOT metabolized | Compound NOT metabolized | Compound NOT metabolized | Compound NOT metabolized | Compound NOT metabolized | Compound NOT metabolized | Compound NOT metabolized | Compound NOT metabolized | Compound NOT metabolized | Compound NOT metabolized | Compound NOT metabolized | Compound NOT metabolized | Compound NOT metabolized | Compound NOT metabolized | Compound NOT metabolized | Compound NOT metabolized | Compound NOT metabolized | Compound NOT metabolized | Compound NOT metabolized | Compound NOT metabolized
Br.CN1CCC[C@@H]1Cc1c[nH]c2ccc(CCS(=O)(=O)c3ccccc3)cc12 [ELETRIPTAN HYDROBROMIDE] | Compound NOT metabolized | Compound metabolized | Compound metabolized | Compound NOT metabolized | Compound NOT metabolized | Compound NOT metabolized | Compound metabolized | Compound NOT metabolized | Compound NOT metabolized | Compound metabolized | Compound NOT metabolized | Compound NOT metabolized | Compound NOT metabolized | Compound NOT metabolized | Compound NOT metabolized | Compound NOT metabolized | Compound NOT metabolized | Compound metabolized | Compound NOT metabolized | Compound metabolized
